Assays:
SREBP-2 = SREBP-2 (Homo sapiens (Human), UniProt Q12772); assay: In vitro assay SREBP-2: PathHunter U2OS SREBP-2 Nuclear Translocation Cell Line, U18666A-stimulated; type: cell-based; conditions: PathHunter U2OS SREBP-2 nuclear translocation cells, U18666A 10 μM, overnight (16 hours)
LXRβ = LXRβ (Homo sapiens (Human), UniProt P55055); assay: In vitro assay LXRβ: PathHunter NHR CHO cells, LXRβ / Steroid Receptor Co-activator Peptide enzyme fragment complementation; type: cell-based; conditions: PathHunter NHR CHO cells, full-length human LXRβ and SRCP, chemiluminescent signal; read-out: LXRβ PPI
In short: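 Co-activator recruitment measured by chemiluminescence after signal generation. The CHO line carries full-length human LXRβ tagged with ProLink and an SRCP–enzyme acceptor fusion in the nucleus; cells sat overnight at 37° C before testing, in charcoal-dextran filtered serum medium with 1% final vehicle.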

Chain of LXRβ (P55055 whole entry, the tested form may be a part): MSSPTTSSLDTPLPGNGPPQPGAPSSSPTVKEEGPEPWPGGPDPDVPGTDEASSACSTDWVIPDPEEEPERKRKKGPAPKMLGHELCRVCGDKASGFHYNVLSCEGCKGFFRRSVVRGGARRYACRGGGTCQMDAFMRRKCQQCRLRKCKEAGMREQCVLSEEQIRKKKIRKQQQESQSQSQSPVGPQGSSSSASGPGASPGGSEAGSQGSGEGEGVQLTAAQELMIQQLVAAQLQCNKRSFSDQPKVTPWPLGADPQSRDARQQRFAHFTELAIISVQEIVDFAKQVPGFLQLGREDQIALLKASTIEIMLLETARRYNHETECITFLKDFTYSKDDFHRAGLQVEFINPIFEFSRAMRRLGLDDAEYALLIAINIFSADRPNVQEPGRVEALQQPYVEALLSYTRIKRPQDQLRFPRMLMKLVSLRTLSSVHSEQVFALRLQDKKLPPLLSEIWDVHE

`Cc1cc(N2CCN(C(=O)CC[C@@H](C)[C@H]3CC[C@H]4[C@@H]5CC=C6C[C@@H](O)CC[C@]6(C)[C@H]5CC[C@]34C)CC2)ncn1` [Example 206, (4R)-4-[(1R,3aS,3bS,7S,9aR,9bS,11aR)-7-hydroxy-9a,11a-dimethyl-1H,2H,3H,3aH,3bH,4H,6H,7H,8H,9H,9aH,9bH,10H,11H,11aH-cyclopenta[a]phenanthren-1-yl]-1-[4-(6-methylpyrimidin-4-yl)piperazin-1-yl]pentan-1-one] was tested, and the IC50 (SREBP-2) was < 250 nM and the EC50 (LXRβ) was > 10 µM.

With `C[C@@H]1CCN(C(=O)CC[C@@H](C)[C@H]2CC[C@H]3[C@@H]4CC=C5C[C@@H](O)CC[C@]5(C)[C@H]4CC[C@]23C)C1` [Example 115, (R)-4-((3S,8S,9S,10R,13R,14S,17R)-3-hydroxy-10,13-dimethyl-2,3,4,7,8,9,10,11,12,13,14,15,16,17-tetradecahydro-1H-cyclopenta[a]phenanthren-17-yl)-1-((R)-3-methylpyrrolidin-1-yl)pentan-1-one] the IC50 (SREBP-2) was < 250 nM and the EC50 (LXRβ) was 0.25 to 1 µM.

`C[C@H](CCC(=O)N1CCC(C)(CNC(=O)C(C)(C)O)CC1)[C@H]1CC[C@H]2[C@@H]3CC=C4C[C@@H](O)CC[C@]4(C)[C@H]3CC[C@]12C` [Example 365, 2-hydroxy-N-((1-((R)-4-((3S,8S,9S,10R,13R,14S,17R)-3-hydroxy-10,13-dimethyl-2,3,4,7,8,9,10,11,12,13,14,15,16,17-tetradecahydro-1H-cyclopenta[a]phenanthren-17-yl)pentanoyl)-4-methylpiperidin-4-yl)methyl)-2-methylpropanamide] was tested, and the IC50 (SREBP-2) was < 250 nM and the EC50 (LXRβ) was > 10 µM.

With `CCC(=O)N1CCN(C(=O)CC[C@@H](C)[C@H]2CC[C@H]3[C@@H]4CC=C5C[C@@H](O)CC[C@]5(C)[C@H]4CC[C@]23C)CC1` [Example 385, (R)-4-((3S,8S,9S,10R,13R,14S,17R)-3-hydroxy-10,13-dimethyl-2,3,4,7,8,9,10,11,12,13,14,15,16,17-tetradecahydro-1H-cyclopenta[a]phenanthren-17-yl)-1-(4-propionylpiperazin-1-yl) pentan-1-one] the IC50 (SREBP-2) was < 250 nM and the EC50 (LXRβ) was > 10 µM.

For `C[C@H](CC(=O)N1CCN(C(=O)c2cnn(C)c2)CC1)[C@H]1CC[C@H]2[C@@H]3CC=C4C[C@@H](O)CC[C@]4(C)[C@H]3CC[C@]12C` [Example 594, (R)-3-((3S,8S,9S,10R,13R,14S,17R)-3-hydroxy-10,13-dimethyl-2,3,4,7,8,9,10,11,12,13,14,15,16,17-tetradecahydro-1H-cyclopenta[a]phenanthren-17-yl)-1-(4-(1-methyl-1H-pyrazole-4-carbonyl)piperazin-1-yl)butan-1-one], the IC50 (SREBP-2) was 1000 to 10000 nM and the EC50 (LXRβ) was > 10 µM.

`C[C@H](CCC(=O)N1CCN(C(=O)NC2CC2)CC1)[C@H]1CC[C@H]2[C@@H]3CC=C4C[C@@H](O)CC[C@]4(C)[C@H]3CC[C@]12C` [Example 338, 4-[(4R)-4-[(1R,3aS,3bS,7S,9aR,9bS,11aR)-7-hydroxy-9a,11a-dimethyl-1H,2H,3H,3aH,3bH,4H,6H,7H,8H,9H,9aH,9bH,10H,11H,11aH-cyclopenta[a]phenanthren-1-yl]pentanoyl]-N-cyclopropylpiperazine-1-carboxamide] was tested, and the IC50 (SREBP-2) was < 250 nM and the EC50 (LXRβ) was > 10 µM.

In the case of `C[C@H](CCC(=O)N1CCN(C(=O)c2cnccn2)C[C@@H]1C)[C@H]1CC[C@H]2[C@@H]3CC=C4C[C@@H](O)CC[C@]4(C)[C@H]3CC[C@]12C` [Example 581, (R)-4-((3S,8S,9S,10R,13R,14S,17R)-3-hydroxy-10,13-dimethyl-2,3,4,7,8,9,10,11,12,13,14,15,16,17-tetradecahydro-1H-cyclopenta[a]phenanthren-17-yl)-1-((S)-2-methyl-4-(pyrazine-2-carbonyl)piperazin-1-yl)pentan-1-one], the IC50 (SREBP-2) is reported as < 250 nM and the EC50 (LXRβ) is reported as > 10 µM.

`CC(=O)N1CCOC12CN(C(=O)CC[C@@H](C)[C@H]1CC[C@H]3[C@@H]4CC=C5C[C@@H](O)CC[C@]5(C)[C@H]4CC[C@]13C)C2` [Example 410, (4R)-4-[(1R,3aS,3bS,7S,9aR,9bS,11aR)-7-hydroxy-9a,11a-dimethyl-1H,2H,3H,3aH,3bH,4H,6H,7H,8H,9H,9aH,9bH,10H,11H,11aH-cyclopenta[a]phenanthren-1-yl]-1-{δ-acetyl-5-oxa-2,8-diazaspiro[3.4]octan-2-yl}pentan-1-one] was tested, and the IC50 (SREBP-2) was 1000 to 10000 nM and the EC50 (LXRβ) was > 10 µM.

For `C[C@H](CCC(=O)N1CCC(C)(CO)C1)[C@H]1CC[C@H]2[C@@H]3CC=C4C[C@@H](O)CC[C@]4(C)[C@H]3CC[C@]12C` (stereo in doubt) [Example 374, (4R)-4-[(1R,3aS,3bS,7S,9aR,9bS,11aR)-7-hydroxy-9a,11a-dimethyl-1H,2H,3H,3aH,3bH,4H,6H,7H,8H,9H,9aH,9bH,10H,11H,11aH-cyclopenta[a]phenanthren-1-yl]-1-[(3R)-3-(hydroxymethyl)-3-methylpyrrolidin-1-yl]pentan-1-one], the IC50 (SREBP-2) was < 250 nM and the EC50 (LXRβ) was 0.25 to 1 µM.

With `C[C@H](CCC(=O)N1CCN(c2ncncc2O)CC1)[C@H]1CC[C@H]2[C@@H]3CC=C4C[C@@H](O)CC[C@]4(C)[C@H]3CC[C@]12C` [Example 630, (R)-4-((3S,8S,9S,10R,13R,14S,17R)-3-hydroxy-10,13-dimethyl-2,3,4,7,8,9,10,11,12,13,14,15,16,17-tetradecahydro-1H-cyclopenta[a]phenanthren-17-yl)-1-(4-(5-hydroxypyrimidin-4-yl)piperazin-1-yl)pentan-1-one] the IC50 (SREBP-2) was < 250 nM and the EC50 (LXRβ) was > 10 µM.

For `C[C@H](CCC(=O)N1CCC[C@@H](O)C1)[C@H]1CC[C@H]2[C@@H]3CC=C4C[C@@H](O)CC[C@]4(C)[C@H]3CC[C@]12C` [Example 104, (R)-4-((3S,8S,9S,10R,13R,14S,17R)-3-hydroxy-10,13-dimethyl-2,3,4,7,8,9,10,11,12,13,14,15,16,17-tetradecahydro-1H-cyclopenta[a]phenanthren-17-yl)-1-((R)-3-hydroxypiperidin-1-yl) pentan-1-one], the IC50 (SREBP-2) was < 250 nM and the EC50 (LXRβ) was 0.25 to 1 µM.

In the case of `COC(=O)N1CCC12CN(C(=O)CC[C@@H](C)[C@H]1CC[C@H]3[C@@H]4CC=C5C[C@@H](O)CC[C@]5(C)[C@H]4CC[C@]13C)C2` [Example 552, methyl6-((R)-4-((3S,8S,9S,10R,13R,14S,17R)-3-hydroxy-10,13-dimethyl-2,3,4,7,8,9,10,11,12,13,14,15,16,17-tetradecahydro-1H-cyclopenta[a]phenanthren-17-yl)pentanoyl)-1,6-diazaspiro[3.3]heptane-1-carboxylate], the IC50 (SREBP-2) is reported as 1000 to 10000 nM and the EC50 (LXRβ) is reported as > 10 µM.

With `CCc1cccnc1CC[C@@H](C)[C@H]1CC[C@H]2[C@@H]3CC=C4C[C@@H](O)CC[C@]4(C)[C@H]3CC[C@]12C` [Example 187, (3S,8S,9S,10R,13R,14S,17R)-17-((R)-4-(3-ethylpyridin-2-yl)butan-2-yl)-10,13-dimethyl-2,3,4,7,8,9,10,11,12,13,14,15,16,17-tetradecahydro-1H-cyclopenta[a]phenanthren-3-ol] the IC50 (SREBP-2) was < 250 nM and the EC50 (LXRβ) was 0.25 to 1 µM.

`COC(=O)N1CCN(C(=S)CC[C@@H](C)[C@H]2CC[C@H]3[C@@H]4CC=C5C[C@@H](O)CC[C@]5(C)[C@H]4CC[C@]23C)CC1` [Example 550, methyl4-[(4R)-4-[(1R,3aS,3bS,7S,9aR,9bS,11aR)-7-hydroxy-9a,11a-dimethyl-1H,2H,3H,3aH,3bH,4H,6H,7H,8H,9H,9aH,9bH,10H,11H,11aH-cyclopenta[a]phenanthren-1-yl]pentanethioyl]piperazine-1-carboxylate] was tested, and the IC50 (SREBP-2) was < 250 nM and the EC50 (LXRβ) was > 10 µM.

In the case of `C[C@H](COC(=O)N1CCN(c2ccncc2)CC1)[C@H]1CC[C@H]2[C@@H]3CC=C4C[C@@H](O)CC[C@]4(C)[C@H]3CC[C@]12C` [Example 597, (2S)-2-[(1R,3aS,3bS,7S,9aR,9bS,11aS)-7-hydroxy-9a,11a-dimethyl-1H,2H,3H,3aH,3bH,4H,6H,7H,8H,9H,9aH,9bH,10H,11H,11aH-cyclopenta[a]phenanthren-1-yl]propyl 4-(pyridin-4-yl)piperazine-1-carboxylate], the IC50 (SREBP-2) is reported as < 250 nM and the EC50 (LXRβ) is reported as > 10 µM.

`[C-]#[N+]c1cccnc1CC[C@@H](C)[C@H]1CC[C@H]2[C@@H]3CC=C4C[C@@H](O)CC[C@]4(C)[C@H]3CC[C@]12C` [Example 638, (3S,8S,9S,10R,13R,14S,17R)-17-((R)-4-(3-isocyanopyridin-2-yl)butan-2-yl)-10,13-dim ethyl-2,3,4,7,8,9,10,11,12,13,14,15,16,17-tetradecahydro-1H-cyclopenta[a]phenanthren-3-ol] was tested, and the IC50 (SREBP-2) was < 250 nM and the EC50 (LXRβ) was 0.25 to 1 µM.

`C[C@H](CCC(=O)N1CCC(CNC(=O)C(C)(C)O)CC1)[C@H]1CC[C@H]2[C@@H]3CC=C4C[C@@H](O)CC[C@]4(C)[C@H]3CC[C@]12C` [Example 228, 2-hydroxy-N-((1-((R)-4-((3S,8S,9S,10R,13R,14S,17R)-3-hydroxy-10,13-dimethyl-2,3,4,7,8,9,10,11,12,13,14,15,16,17-tetradecahydro-1H-cyclopenta[a]phenanthren-17-yl)pentanoyl)piperidin-4-yl)methyl)-2-methylpropanamide] was tested, and the IC50 (SREBP-2) was < 250 nM and the EC50 (LXRβ) was > 10 µM.

In the case of `Cc1ccnc(N2CCN(C(=O)CC[C@@H](C)[C@H]3CC[C@H]4[C@@H]5CC=C6C[C@@H](O)CC[C@]6(C)[C@H]5CC[C@]34C)CC2)c1` [Example 658, (R)-4-((3S,8S,9S,10R,13R,14S,17R)-3-hydroxy-10,13-dimethyl-2,3,4,7,8,9,10,11,12,13,14,15,16,17-tetradecahydro-1H-cyclopenta[a]phenanthren-17-yl)-1-(4-(4-methylpyridin-2-yl)piperazin-1-yl)pentan-1-one], the IC50 (SREBP-2) is reported as < 250 nM and the EC50 (LXRβ) is reported as > 10 µM.
